ChEMBL document CHEMBL1833826, “Evaluation of PI polyamide conjugates with eight-base pair recognition and improvement of the aqueous solubility by PEGylation” (Bioorg Med Chem, 2011)
In brackets after ≈: the same amount, converted by molar mass. Activity calls are given as the source filed them. No cut-off for these calls is given here.

Legend:
[1] = Solubility of the compound in Milli-Q water at 25 degC; assay type: physicochemical
[2] = Chemical stability of the compound in 5 mM sodium phosphate buffer containing 10% DMF at pH 7 assessed as half life by HPLC analysis; assay type: physicochemical
[3] = system: A549; assay: Cytotoxicity against human A549 cells after 48 hrs; assay type: functional, cell-based; conditions: A549, 48 h
[4] = system: DU-145; assay: Cytotoxicity against human DU145 cells after 48 hrs; assay type: functional, cell-based; conditions: DU-145, 48 h
[5] = system: Nucleic Acid; assay: Induction of 5'-Texas Red-labelled 208-bp DNA alkylation at 5'-TCCATCCA-3' sequence at 25 to 200 nM after 18 hrs followed by quenching with calf thymus DNA by PAGE analysis; assay type: nucleic-acid assay; conditions: Homo sapiens
[6] = system: Nucleic Acid; assay: Induction of 5'-Texas Red-labelled 208-bp DNA alkylation at 5'-GTCATCCA-3' sequence at 25 to 200 nM after 18 hrs followed by quenching with calf thymus DNA by PAGE analysis; assay type: nucleic-acid assay
[7] = system: Nucleic Acid; assay: Induction of 5'-Texas Red-labelled 208-bp DNA alkylation at 5'-TGCATCCA-3' sequence at 25 to 200 nM after 18 hrs followed by quenching with calf thymus DNA by PAGE analysis; assay type: nucleic-acid assay
[8] = system: Nucleic Acid; assay: Induction of 5'-Texas Red-labelled 208-bp DNA alkylation at 5'-ATTTGTCA-3' sequence at 25 to 200 nM after 18 hrs followed by quenching with calf thymus DNA by PAGE analysis; assay type: nucleic-acid assay; conditions: Homo sapiens
[9] = system: Nucleic Acid; assay: Induction of 5'-Texas Red-labelled 208-bp DNA alkylation at 5'-AATACTCA-3' sequence at 25 to 200 nM after 18 hrs followed by quenching with calf thymus DNA by PAGE analysis; assay type: nucleic-acid assay
[10] = system: Nucleic Acid; assay: Induction of 5'-Texas Red-labelled 208-bp DNA alkylation at 5'-ATTCACTA-3' sequence at 25 to 200 nM after 18 hrs followed by quenching with calf thymus DNA by PAGE analysis; assay type: nucleic-acid assay; conditions: Homo sapiens

SMILES	solubility [1]	half-life [2]	IC50 [3]	IC50 [4]	other results
CC(=O)Nc1cc(C(=O)Nc2cn(C)c(C(=O)NCCC(=O)Nc3cn(C)c(C(=O)Nc4cc(C(=O)Nc5cc(C(=O)NCCCC(=O)Nc6cc(C(=O)Nc7cc(C(=O)Nc8cc(C(=O)Nc9cc(C(=O)Nc%10ccc%11[nH]c(C(=O)N%12CC(CCl)c%13c%12cc(OC(=O)NCCCN(C)C)c%12ccccc%13%12)cc%11c%10)n(C)c9)n(C)c8)n(C)c7)n(C)c6)n(C)c5)n(C)c4)n3)n2)n(C)c1 (configuration not stated)	230 µM (≈ 418 µg/mL)	1.1 h			
COCCNC(=O)Oc1cc2c(c3ccccc13)C(CCl)CN2C(=O)c1cc2cc(NC(=O)c3cc(NC(=O)c4cc(NC(=O)c5cc(NC(=O)c6cc(NC(=O)CCCNC(=O)c7cc(NC(=O)c8cc(NC(=O)c9nc(NC(=O)CCNC(=O)c%10nc(NC(=O)c%11cc(NC(C)=O)cn%11C)cn%10C)cn9C)cn8C)cn7C)cn6C)cn5C)cn4C)cn3C)ccc2[nH]1 (configuration not stated)	180 µM (≈ 323 µg/mL)	3.5 h			
CC(=O)Nc1cn(C)c(C(=O)Nc2cc(C(=O)Nc3cc(C(=O)NCCC(=O)Nc4cc(C(=O)NCCCC(=O)Nc5cc(C(=O)NCCC(=O)Nc6cn(C)c(C(=O)Nc7ccc8[nH]c(C(=O)N9CC(CCl)c%10c9cc(O)c9ccccc%109)cc8c7)n6)n(C)c5)n(C)c4)n(C)c3)n(C)c2)n1 (configuration not stated)			51 nM	28 nM	
CC(=O)Nc1cc(C(=O)Nc2cn(C)c(C(=O)NCCC(=O)Nc3cn(C)c(C(=O)Nc4cc(C(=O)Nc5cc(C(=O)NCCCC(=O)Nc6cc(C(=O)Nc7cc(C(=O)Nc8cc(C(=O)Nc9cc(C(=O)Nc%10ccc%11[nH]c(C(=O)N%12CC(CCl)c%13c%12cc(OC(=O)[C@@H](N)CCCCN)c%12ccccc%13%12)cc%11c%10)n(C)c9)n(C)c8)n(C)c7)n(C)c6)n(C)c5)n(C)c4)n3)n2)n(C)c1 (some centres not stated)	1200 µM (≈ 2180 µg/mL)	< 1 h			
CC(=O)Nc1cn(C)c(C(=O)Nc2cn(C)c(C(=O)Nc3cc(C(=O)NCCC(=O)Nc4cn(C)c(C(=O)Nc5cn(C)c(C(=O)NCCCC(=O)Nc6cc(C(=O)Nc7cc(C(=O)NCCC(=O)Nc8cc(C(=O)Nc9ccc%10[nH]c(C(=O)N%11CC(CCl)c%12c%11cc(O)c%11ccccc%12%11)cc%10c9)n(C)c8)n(C)c7)n(C)c6)n5)n4)n(C)c3)n2)n1 (configuration not stated)			240 nM	45 nM	Activity [5]: Active; Activity [6]: 11%; Activity [7]: 47%
CC(=O)Nc1cn(C)c(C(=O)Nc2cc(C(=O)Nc3cc(C(=O)NCCC(=O)Nc4cc(C(=O)Nc5cc(C(=O)NCCCC(=O)Nc6cc(C(=O)Nc7cc(C(=O)NCCC(=O)Nc8cn(C)c(C(=O)Nc9ccc%10[nH]c(C(=O)N%11CC(CCl)c%12c%11cc(O)c%11ccccc%12%11)cc%10c9)n8)n(C)c7)n(C)c6)n(C)c5)n(C)c4)n(C)c3)n(C)c2)n1 (configuration not stated)			29 nM	7.9 nM	Activity [8]: Active; Activity [9]: 54%
CC(=O)Nc1cc(C(=O)Nc2cn(C)c(C(=O)NCCC(=O)Nc3cn(C)c(C(=O)Nc4cc(C(=O)Nc5cc(C(=O)NCCCC(=O)Nc6cc(C(=O)Nc7cc(C(=O)Nc8cc(C(=O)Nc9cc(C(=O)Nc%10ccc%11[nH]c(C(=O)N%12CC(CCl)c%13c%12cc(O)c%12ccccc%13%12)cc%11c%10)n(C)c9)n(C)c8)n(C)c7)n(C)c6)n(C)c5)n(C)c4)n3)n2)n(C)c1 (configuration not stated)			240 nM	62 nM	Activity [10]: Active
CC(=O)Nc1cn(C)c(C(=O)Nc2cn(C)c(C(=O)Nc3cc(C(=O)Nc4cc(C(=O)NCCCC(=O)Nc5cn(C)c(C(=O)Nc6cn(C)c(C(=O)Nc7ccc8[nH]c(C(=O)N9CC(CCl)c%10c9cc(O)c9ccccc%109)cc8c7)n6)n5)n(C)c4)n(C)c3)n2)n1 (configuration not stated)			135 nM	47 nM	
